Patent US9856290B2, “Glycopeptide compositions and uses thereof” (SUSSEX RESEARCH LABORATORIES INC., priority 2013, dated 2018)
Marks after values point to notes of the source that are not given here. Primed or numbered codes have the meaning given here. The star is where a group is joined. Ac3‑α‑GalNAc = per-acetylated α-N-acetylgalactosamine (O-glycoside), CC(=O)N[C@@H]1[C@@H](OC(C)=O)[C@@H](OC(C)=O)[C@@H](COC(C)=O)O[C@@H]1*; Ac3‑β‑GlcNAc = per-acetylated β-N-acetylglucosamine, CC(=O)N[C@@H]1[C@@H](OC(C)=O)[C@H](OC(C)=O)[C@@H](COC(C)=O)O[C@H]1*; Ac4‑β‑Glc = per-acetylated β-glucose (tetraacetyl), CC(=O)OC[C@H]1O[C@@H](*)[C@H](OC(C)=O)[C@@H](OC(C)=O)[C@@H]1OC(C)=O; Ac4‑β‑Glc″ = peracetylated beta-glucose, CC(=O)OC[C@H]1O[C@@H](*)[C@H](OC(C)=O)[C@@H](OC(C)=O)[C@@H]1OC(C)=O; αGalNAc = CC(=O)N[C@@H]1[C@@H](O)[C@@H](O)[C@@H](CO)O[C@@H]1*; αMan = OC[C@H]1O[C@H](*)[C@@H](O)[C@@H](O)[C@@H]1O; βGlc = OC[C@H]1O[C@@H](*)[C@H](O)[C@@H](O)[C@@H]1O; βGal = OC[C@H]1O[C@@H](*)[C@H](O)[C@@H](O)[C@H]1O; Palmitoyl = CCCCCCCCCCCCCCCC(=O)*

Experiments:
[1] = system: Human Dermal Fibroblasts (KMST-6); test: ECM ELISA assay: elastin secretion by human dermal fibroblasts; assay type: cell-based; settings: 5 μM, % compared to control set at 100%, normalized to total protein; for Elastin Secretion at 48 hours: KMST-6, 48 hours; for Elastin Secretion at 72 hours: KMST-6, 72 hours
Method: (§1) KMST-6 cells (Japan Health Sciences Foundation, JCRB0433) were seeded at 7,000 cells/ml in 12-well tissue culture treated plates (Falcon, 353043) in complete media. The complete media consisted of the following: MEM/EBSS (Hyclone, SH30024.01), 10% Heat-Inactivated FBS (Gibco, 10082-147), 1% L-Glutamine (Hyclone, SH30031.01), 1% Nucleosides (800 mg/L Adenosine, 850 mg/L Guanidine, 730 mg/L Cytidine, 730 mg/L Uridine and 240 mg/L Thymidine), 1% Penicillin/Streptomycin (HyClone, SV30010), 1% Sodium Pyruvate (HyClone, SH30239.01), 1% Non-Essential Amino Acids (Hyclone, SH30238.01) and 0.04% Gentamicin (Gibco, 15710-064). Cells were grown for 2 days prior to treatments. The media was aspirated and cells were washed with 1×PBS (Fisher, SH30256.01) and treated with 5 μM (1 mL/well) glycopeptides, reference (Pal-KTTKS, CPC Scientific, 822197), and control (DMSO, Fisher, BP231-100) in serum-free media supplemented with 50 μg/mL Sodium Ascorbate (Sigma, A4034) and 80 μg/mL β-Aminopropionate Fumarate (Sigma, A3134). The treated cells were incubated at 37° C. and 5% CO2 for 48 and 72 hours. At each timepoint, media from each treatment was collected and centrifuged at 1500 RPM for 15 minutes at 4° C. The supernatant was collected and stored at −80° C. for extracellular matrix protein quantification. The following kits were used for quantification of ECM proteins: Fibronectin (Takara, MK115) and Elastin (Uscn Life Science Inc., E91337Hu). The cells were harvest and lysed with 250 μL Lysis Buffer (20 mM Tris-HCl (Sigma, T1503), 137 mM NaCl (Sigma, S9888), 2 mM EDTA (Fisher, BP118), 1% IGEPAL (Sigma, 18896), 10% Glycerol (Sigma, G5516), 100 μM PMSF (Fisher, 36978) and 10 μg/mL Leupeptin (Sigma-Aldrich, L2884). They were placed on a container of ice on a plate shaker (Lab-Line Instruments, 3595) for 30 minutes. The lysate was centrifuged at 10,000 g for 5 minutes at 4° C. The supernatant was collected and used for protein quantification (BioRad, 500-0112).
(§2) To determine effects on extracellular matrix protein secretion, 5 μM of individual glycopeptides were incubated with Human Dermal Fibroblasts (KMST-6). The control sample cells were treated with DMSO (Fisher, BP231-100). As described previously, supernatant was collected from treated cells (at two time-points, 48 and 72 hours of treatment) and stored at −80° C. for subsequent extracellular matrix protein quantification using ELISA kits (Fibronectin (Takara, MK115), Elastin (Uscn Life Science Inc., E91337Hu). For the determination of total cellular protein, treated cells were harvested and lysed. The lysate was centrifuged, the supernatant was collected and then used for protein quantification (BioRad, 500-0112). ELISA plates were read on the plate reader (Molecular Devices) at absorbance of 450 nm and SoftMax Pro software was used to compute the μg/ml values of protein of interest derived from the generated 4-parameter fit standard curve. Each μg/ml of protein secreted was normalized to total protein per well. The data was analysed by averaging out normalized values from at least three independent experiments and presenting them as a % compared to control treatment set at 100% (Table 2-5). Statistical significance was performed using One-way ANOVA (p<0.05) where “*” represents statistical significance when compared to control and “#” represents statistical significance when compared to reference. […]

[2] = system: Human Dermal Fibroblasts (KMST-6); test: ECM ELISA assay: fibronectin secretion by human dermal fibroblasts; assay type: cell-based; settings: 5 μM, % compared to control set at 100%, normalized to total protein; for Fibronectin secretion at 48 hours: KMST-6, 48 hours; for Fibronectin Secretion at 72 hours: KMST-6, 72 hours
Method: as §1, §2

Row | Substance | Elastin Secretion at 48 hours [1] | Elastin Secretion at 72 hours [1] | Fibronectin secretion at 48 hours [2] | Fibronectin Secretion at 72 hours [2]
1 | Pal-KTT(β-Glc)KS-OH (Palmitoyl-KTT(βGlc)KS-OH; SMILES CCCCCCCCCCCCCCCC(=O)N[C@@H](CCCCN)C(=O)N[C@H](C(=O)N[C@H](C(=O)N[C@@H](CCCCN)C(=O)N[C@@H](CO)C(=O)O)[C@@H](C)O[C@@H]1O[C@H](CO)[C@@H](O)[C@H](O)[C@H]1O)[C@@H](C)O; listed as Homo sapiens) [GP001-8] | 94.25% | 91.25% | 106.4% | 106.2%
2 | Pal-KT(Ac3-β-GlcNAc)TKS-OH (Palmitoyl-KT(Ac3‑β‑GlcNAc)TKS-OH; SMILES CCCCCCCCCCCCCCCC(=O)N[C@@H](CCCCN)C(=O)N[C@H](C(=O)N[C@H](C(=O)N[C@@H](CCCCN)C(=O)N[C@@H](CO)C(=O)O)[C@@H](C)O)[C@@H](C)O[C@@H]1O[C@H](COC(C)=O)[C@@H](OC(C)=O)[C@H](OC(C)=O)[C@H]1NC(C)=O; listed as Homo sapiens) [GP001-5] | 81.67% | 90.00% | 125.0% | 105.0%
3 | Pal-KTT(Ac3-β-GlcNAc)KS-OH (Palmitoyl-KTT(Ac3‑β‑GlcNAc)KS-OH; SMILES CCCCCCCCCCCCCCCC(=O)N[C@@H](CCCCN)C(=O)N[C@H](C(=O)N[C@H](C(=O)N[C@@H](CCCCN)C(=O)N[C@@H](CO)C(=O)O)[C@@H](C)O[C@@H]1O[C@H](COC(C)=O)[C@@H](OC(C)=O)[C@H](OC(C)=O)[C@H]1NC(C)=O)[C@@H](C)O; listed as Homo sapiens) [GP001-11] | 114.3% | 94.75% | 111.2% | 113.8%
4 | Pal-KT(α-Man)TKS-OH (Palmitoyl-KT(αMan)TKS-OH; SMILES CCCCCCCCCCCCCCCC(=O)N[C@@H](CCCCN)C(=O)N[C@H](C(=O)N[C@H](C(=O)N[C@@H](CCCCN)C(=O)N[C@@H](CO)C(=O)O)[C@@H](C)O)[C@@H](C)O[C@H]1O[C@H](CO)[C@@H](O)[C@H](O)[C@@H]1O; listed as Homo sapiens) [GP003-2] | 121.0% | 160.4% | 165.0* % | 110.3%
5 | Pal-KTT(Ac3-α-GalNAc)KS-OH (Palmitoyl-KTT(Ac3‑α‑GalNAc)KS-OH; SMILES CCCCCCCCCCCCCCCC(=O)N[C@@H](CCCCN)C(=O)N[C@H](C(=O)N[C@H](C(=O)N[C@@H](CCCCN)C(=O)N[C@@H](CO)C(=O)O)[C@@H](C)O[C@H]1O[C@H](COC(C)=O)[C@H](OC(C)=O)[C@H](OC(C)=O)[C@H]1NC(C)=O)[C@@H](C)O; listed as Homo sapiens) [GP001-9] | 103.7% | 104.3% | 123.4% | 104.8%
6 | Pal-KTT(α-GalNAc)KS-OH (Palmitoyl-KTT(αGalNAc)KS-OH; SMILES CCCCCCCCCCCCCCCC(=O)N[C@@H](CCCCN)C(=O)N[C@H](C(=O)N[C@H](C(=O)N[C@@H](CCCCN)C(=O)N[C@@H](CO)C(=O)O)[C@@H](C)O[C@H]1O[C@H](CO)[C@H](O)[C@H](O)[C@H]1NC(C)=O)[C@@H](C)O; listed as Homo sapiens) [GP001-10] | 103.0% | 98.67% | 100.2% | 104.0%
7 | Pal-KT(α-GalNAc)-T(α-GalNAc)KS-OH (Palmitoyl-KT(αGalNAc)T(αGalNAc)KS-OH; SMILES CCCCCCCCCCCCCCCC(=O)N[C@@H](CCCCN)C(=O)N[C@H](C(=O)N[C@H](C(=O)N[C@@H](CCCCN)C(=O)N[C@@H](CO)C(=O)O)[C@@H](C)O[C@H]1O[C@H](CO)[C@H](O)[C@H](O)[C@H]1NC(C)=O)[C@@H](C)O[C@H]1O[C@H](CO)[C@H](O)[C@H](O)[C@H]1NC(C)=O; listed as Homo sapiens) [GP001-14] | 88.00% | 98.25% | 104.8% | 94.75%
8 | Pal-KTTKS(β-Gal)-OH (Palmitoyl-KTTKS(βGal)-OH; SMILES CCCCCCCCCCCCCCCC(=O)N[C@@H](CCCCN)C(=O)N[C@H](C(=O)N[C@H](C(=O)N[C@@H](CCCCN)C(=O)N[C@@H](CO[C@@H]1O[C@H](CO)[C@H](O)[C@H](O)[C@H]1O)C(=O)O)[C@@H](C)O)[C@@H](C)O; listed as Homo sapiens) [GP002-8] | 103.8% | 177.8% | 110.0% | 121.0%
9 | Pal-KN(Ac4-β-Glc)TKS-OH (Palmitoyl-KN(Ac4‑β‑Glc″)TKS-OH; listed as Homo sapiens) [GP003-5] | 211.4% | 194.2% | 146.0% | 136.0%
10 | Pal-KS(Ac4-β-Glc)TKS-OH (Palmitoyl-KS(Ac4‑β‑Glc″)TKS-OH; SMILES CCCCCCCCCCCCCCCC(=O)N[C@@H](CCCCN)C(=O)N[C@@H](CO[C@@H]1O[C@H](COC(C)=O)[C@@H](OC(C)=O)[C@H](OC(C)=O)[C@H]1OC(C)=O)C(=O)N[C@H](C(=O)N[C@@H](CCCCN)C(=O)N[C@@H](CO)C(=O)O)[C@@H](C)O; listed as Homo sapiens) [GP003-3] | 177.1% | 146.8% | 162.0* % | 138.8%
11 | Pal-N(Ac4-β-Glc)KTTKS-OH (Palmitoyl-N(Ac4‑β‑Glc)KTTKS-OH; listed as Homo sapiens) [GP003-7] | 105.0% | 148.2% | 139.8% | 118.5%
